In patent publication US11197836B2, “Topical vasoconstrictor preparations and methods for protecting cells during cancer chemotherapy and radiotherapy” (WISCONSIN ALUMNI RESEARCH FOUNDATION, priority 2005, dated 2021):
Entries after “also recorded” stand apart in the source; their conditions may differ. Counter-ions that a name gives are not always drawn. Like-named read-outs stand apart in the source and are kept apart here.

Experiments:
[1] = blood plasma, following intravenous infusion or oral administration; cited from earlier work
[2] = test system: coat density; conditions: ten-day old Sprague-Dawley rats
Protocol: On day 20 of life, coat density on the dorsal back of each animal was visually scored as a percentage of the normal coat density for an untreated 20 day old rat. At 30 μg/gm b.w.

[3] = test system: radiation-induced dermatitis of rat skin; conditions: for Radiation Dermatitis Score (% of Irradiated 4.5 cm^2 Area Free of Scab material): rat, 8.7 Gy γ, scored 13 days later
[4] = test system: human skin; conditions: for Skin Blanch Response: human arm skin; for blanching of the skin: human skin, over the 180 min observation period
[5] = test system: chemotherapy-induced alopecia; conditions: 950 mM topical four times in two hr, 10 day old rat pups, Cytoxan 30 μg/gm b.w. i.p.
[6] = test system: radiation-induced oral mucositis; conditions: for Muscositis Severity Score: score 0-17, day 16
Protocol: In an assay based upon Alvarez eta/. […] Additional topical formulation was applied with Q-tip to uniformly cover the everted, interior surface of the cheek pouch. After 20 min, the vehicle-coated, immobilized cheek pouch was taped into position over a 1.5 cm diameter window bored through a 2.5 cm thick lead plate. The sleeping hamster was immobilized on a small shelf on the plate that enabled cheek pouch irradiation through the window.
After irradiation, the cheek pouch was rinsed with water, blotted and reverted. The severity of mucositis in the irradiated cheek pouch was scored 16 days later using the following criteria.

[7] = test system: cheek pouch oral mucosa; experiment: Blanch response of hamster cheek pouch oral mucosa, Example 15; format: in vivo, Syrian Golden hamster; conditions: 10 mM in 5:1:94 ethanol:HPMC:PBS, after 30 min
Protocol: Hamsters were anesthetized with sodium pentobarbital, the cheek pouch was everted with forceps, rinsed with water and blotted, and immobilized on a 2 cm diameter inert plastic disk using stainless steel clips (see panels in FIG. 11). […] Digital images were recorded.

[8] = test system: radiation-induced or Cytoxan-induced alopecia; conditions: neonate rat, day 20 of life
Description: The severity of the alopecia was scored nine days later—on day 20 of life.

[9] = test system: dermal vasculature; experiment: Exclusion of systemic dye from rat skin (colorimeter), Example 18; format: in vivo; conditions: 300 mM in 50:30:20 vehicle, 30 min time point
Protocol: 400 μl of a black dye solution was injected into each test rat as an i.p. bolus at 10 min after topical treatment with either 300 mM norepinephrine or vehicle alone. Colorimeter measurements of skin color in patches were made and the progression was recorded from 0 through 30 min. The change in colorimeter units between the 0 min reading and readings at indicated time points are plotted in FIG. 15. Colorimeter measurements of skin color were made using a CR-400 colorimeter (Minolta Corp.).

[10] = Sustained solubility of norepinephrine tartrate in ethanol:PG:water mixtures, Example 7; format: physicochemical; conditions: 600 mM
Protocol: Solvent composed of ethanol:propylene glycol (PG):water in the percentages (vol:vol:vol)·specified in FIG. 3 was then added to each vial. Vials were heated as necessary to dissolve norepinephrine by touching vials to a boiling water bath for one second increments and then vortexing until clear. Sealed vials were left at room temperature for 24 hours, and at 4° C. for 24 hours. During the two 24 hour incubations, liquid in each vial was examined using a magnifying glass to identify the formation of any crystalline material. If crystals formed, norepinephrine was noted as “insoluble” at that solvent mixture.

[11] = test system: adrenergic receptor; conditions: cited from earlier work
[12] = test system: radiodermatitis of rat skin; experiment: Radiodermatitis prevention after 27 Gy 6 MeV electron beam irradiation of rat skin, Example 14; format: in vivo; conditions: 300 mM topical
Protocol: Adult rats ([…]) were clipped to remove the coat covering their dorsal backs. Aliquots (100 μl) of topical drug formulation containing 300 mM norepinephrine were applied once to the backs of the rats, and at set time points afterward, a rectangle (1.5 cm×3 cm) within the topical treatment field received a 27 Gy dose of 6 MeV electrons from a linear accelerator. Animals were anesthetized with 30 μg/gm b.w. sodium pentobarbital prior to irradiation. Following irradiation, rats were returned to cages, and 13 days later the severity of radiodermatitis within the irradiated rectangular field was visually scored and photographed. A “Radiodermatitis Severity Score” between 0 and 100 represents the percentage of the irradiated field that is covered by scab material on day 13 following irradiation.

[13] = Dissolution and 24 hr solution status of vasoconstrictor salts in ethanol:PG:water diluents, Example 6; format: physicochemical; conditions: at the concentrations required to induce an acceptable blanch response
Protocol: Aliquots of each vasoconstrictor salt were weighed into glass test tubes. The volume of liquid necessary to achieve the indicated final drug concentration was then added.
(§1) The approximate amount of heat required to dissolve the vasoconstrictor salt in each diluent is indicated. Once diluted, samples were sealed and held at room temperature (22° C.) for 24 hours and then at 4° C. for 24 hours. Skin blanch induced by the topical formulation was assessed by applying freshly made, clear formulation to human skin shortly after initial mixing. Drug solutions were monitored for the appearance of precipitated material over a 48 hour observation period.

[14] = test system: human skin; experiment: Human skin blanch 20 min after topical application, Example 6; format: in vivo; conditions: applied to unbroken human skin
Protocol: as §1

[15] = test system: radiation-induced oral mucositis; experiment: Radiation-induced oral mucositis in hamster cheek pouch, Example 16; conditions: hamster cheek pouch

O=P1(N(CCCl)CCCl)NCCCO1 (centres unmarked) [Cytoxan, cyclophosphamide]
clearance half-life [1]: about one
coat on day 20 ([2]; 20 μg/gm b.w. and lower doses i.p.): full coats
coat on day 20 ([2]; 30 μg/gm b.w. and higher doses i.p.): nude

CNC[C@H](O)c1ccc(O)c(O)c1 [epinephrine, epinephrine-HCl]
Radiation Dermatitis Score (% of Irradiated 4.5 cm^2 Area Free of Scab material) ([3]; 20 mM, vehicle 50:30:20, four topical applications): 32%
Radiation Dermatitis Score (% of Irradiated 4.5 cm^2 Area Free of Scab material) ([3]; 300 mM, vehicle 25:30:45, four topical applications): 95%
Radiation Dermatitis Score (% of Irradiated 4.5 cm^2 Area Free of Scab material) ([3]; 1000 mM, vehicle 50:30:20, four topical applications): 100%
concentration applied to skin required to confer protection against radiation dermatitis ([3]; rat skin): > 20 mM
Skin Blanch Response ([4]; 2 mM in 50:25:25 ethanol:propylene glycol:water, 45 min): 10%
Skin Blanch Response ([4]; 2 mM in 50:25:25 ethanol:propylene glycol:water, 60 min): 40%
Skin Blanch Response ([4]; 2 mM in 50:25:25 ethanol:propylene glycol:water, 150 min): 75%
Skin Blanch Response ([4]; 10 mM in 50:25:25 ethanol:propylene glycol:water, 45 min): 40%
Skin Blanch Response ([4]; 10 mM in 50:25:25 ethanol:propylene glycol:water, 60 min): 60%
Skin Blanch Response ([4]; 10 mM in 50:25:25 ethanol:propylene glycol:water, 150 min): 90%
Skin Blanch Response ([4]; 50 mM in 50:25:25 ethanol:propylene glycol:water, 45 min): 30%
Skin Blanch Response ([4]; 50 mM in 50:25:25 ethanol:propylene glycol:water, 60 min): 50%
Skin Blanch Response ([4]; 50 mM in 50:25:25 ethanol:propylene glycol:water, 150 min): 85%
Skin Blanch Response ([4]; 0.1% (4.55 mM) in water, 45 min): 0%
Skin Blanch Response ([4]; 0.1% (4.55 mM) in water, 60 min): 0%
Skin Blanch Response ([4]; 0.1% (4.55 mM) in water, 150 min): 0%
Skin Blanch Response ([4]; 0.1% (4.55 mM) in water, 180 min): 0%
blanching of the skin ([4]; 0.1% aqueous solution): no detectable blanching
Skin Blanch Response ([4]; 100 mM in 50:25:25 ethanol:propylene glycol:water, 45 min): 85%
Skin Blanch Response ([4]; 100 mM in 50:25:25 ethanol:propylene glycol:water, 60 min): 90%
Skin Blanch Response ([4]; 100 mM in 50:25:25 ethanol:propylene glycol:water, 150 min): 90%
Skin Blanch Response ([4]; 1000 mM in 50:25:25 ethanol:propylene glycol:water, 45 min): 85%
Skin Blanch Response ([4]; 1000 mM in 50:25:25 ethanol:propylene glycol:water, 60 min): 90%
Skin Blanch Response ([4]; 1000 mM in 50:25:25 ethanol:propylene glycol:water, 150 min): 95%
coat protection on day 20 [5]: partial coat protection
Muscositis Severity Score ([6]; 0.05 mM, vehicle 5:5:3:87 ethanol:propylene glycol:HPMC:PBS, irradiation 20 min, Experiment C): 7.5
Muscositis Severity Score ([6]; 0.10 mM, vehicle 5:5:3:87, irradiation 20 min, Experiment C): 5.0
Muscositis Severity Score ([6]; 0.20 mM, vehicle 5:5:3:87, irradiation 20 min, Experiment C): 3.0
Muscositis Severity Score ([6]; 0.40 mM, vehicle 5:5:3:87, irradiation 20 min, Experiment C): 0
Muscositis Severity Score ([6]; 13.5 mM epinephrine + 12.3 mM epinephrine, vehicle 0:5:3:92, irradiation 24 min, Experiment B): 11.7 ± 0.7
Muscositis Severity Score ([6]; 100.00 mM, vehicle 5:0:1:94, irradiation 24 min, Experiment A): 14.5 ± 2.4
Muscositis Severity Score ([6]; 500.00 mM, vehicle 5:0:1:94, irradiation 24 min, Experiment A): 9.0
lowest topical concentration with discernible radioprotection of a mucosal site ([6]; hamster cheek pouch): 50 µM
appearance of cheek pouch (blanch) [7]: white and translucent
Alopecia Score (% Normal Coat Density in Topical Treatment Area) ([8]; 20 mM, vehicle 50:25:25, Irradiation 7.5 Gy whole-body): 6%
Alopecia Score (% Normal Coat Density in Topical Treatment Area) ([8]; 100 mM, vehicle 50:25:25, Irradiation 7.5 Gy whole-body): 33%
Alopecia Score (% Normal Coat Density in Topical Treatment Area) ([8]; 500 mM, vehicle 50:25:25, Irradiation 7.5 Gy whole-body): 45%
Alopecia Score (% Normal Coat Density in Topical Treatment Area) ([8]; 1000 mM, vehicle 0:100:0, Irradiation 7.5 Gy whole-body): 95%
Alopecia Score (% Normal Coat Density in Topical Treatment Area) ([8]; 1000 mM, vehicle 25:30:45, Cytoxan 32 μ/gm b.w. i.p.): 40%
Alopecia Score (% Normal Coat Density in Topical Treatment Area) ([8]; 1000 mM, vehicle 25:30:45 ethanol:propylene glycol:water, alopecia-inducing agent None): 100%
Alopecia Score (% Normal Coat Density in Topical Treatment Area) ([8]; 1000 mM, vehicle 50:25:25, Irradiation 7.5 Gy whole-body): 94%

NC[C@H](O)c1ccc(O)c(O)c1 [norepinephrine]
reduction of delivery of systemic, blood-borne dye to treated skin [9]: 39%
solubility (no crystals over 24 hr room temperature and 24 hr 4° C.) ([10]; 55:20:25 ethanol:PG:water): not soluble
solubility (no crystals over 24 hr room temperature and 24 hr 4° C.) ([10]; around 50:30:20 ethanol:PG:water): areas of solubility
solubility (no crystals over 24 hr room temperature and 24 hr 4° C.) ([10]; around 60:10:30 ethanol:PG:water): areas of solubility
agonism of the β2 receptor [11]: not an agonist of the β2 receptor
binding affinity (potency) for the α1 adrenergic receptor [11]: slightly better than for epinephrine
protection against Grade 2 dermatitis [12]: complete protection

CNC[C@H](O)c1cccc(O)c1 [phenylephrine, phenylephrine-HCl]
solubility in topical vehicles [13]: not stably soluble
Skin Blanch Response ([4]; 30 mM in 60:30:10 vehicle, 180 min): 0%
Skin Blanch Response ([4]; 150 mM in 60:30:10 vehicle, 180 min): 35%
Skin Blanch Response ([4]; 0.25% (12.3 mM) in water, 180 min): 0%
blanching of the skin ([4]; 0.25% aqueous solution): no detectable blanching
Skin Blanch Response ([4]; 300 mM in 60:30:10 vehicle, 180 min): 50%
Skin Blanch Response ([4]; 1000 mM in 60:30:10 vehicle, 180 min): 60%
Skin Blanch Response ([4]; 2500 mM in 60:30:10 vehicle, 180 min): 70%
Muscositis Severity Score ([6]; 12.3 mM, vehicle 0:5:3:92, irradiation 24 min, Experiment B): 5.0 ± 0.1
appearance of cheek pouch (blanch) [7]: white and translucent
potency to induce skin blanch [14]: lacks the potency to adequately induce skin blanch
protection against γ radiation-induced mucositis ([15]; 10 mM topical): completely protective; also recorded: completely preventing
mucosal pathology ([15]; large excess doses combined with 24 min of irradiation (40 Gy)): severe mucosal pathology
mucosal pathology ([15]; large excess doses without irradiation): no discernible mucosal pathology
